Experimental data: patent US20230293535A1, “ERBB/BTK INHIBITORS” (Dizal (Jiangsu) Pharmaceutical Co., Ltd., priority 2018, published 2023)

Tests used:
Format in all cases: cell-based
[1] = biological target: T1, human EGFR exon 20 H773_V774insNPH (Homo sapiens, UniProt P00533, INS773NPH); assay: EGFR Exon20 NPH insertion cellular phosphorylation inhibition (MSD pEGFR Y1068/total EGFR); conditions: Ba/F3 EGFR NPH ins cells, 4 h compound, p-EGFR(Y1068)/total EGFR;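 also: IL3-independent Ba/F3 cells with constitutively phosphorylated EGFR, compound exposure at 37 °C under 5% CO2, electrochemiluminescent MSD measurement of the p-EGFR to total EGFR ratio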
T1 construct: host or cells: Ba/F3

[2] = biological target: T2, human EGFR exon 20 V769_D770insASV (Homo sapiens, UniProt P00533, INS769ASV); assay: EGFR Exon20 ASV insertion cellular phosphorylation inhibition (MSD pEGFR Y1068/total EGFR); conditions: Ba/F3 EGFR ASV ins cells, 4 h compound, p-EGFR(Y1068)/total EGFR;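 also: electrochemiluminescent readout on an MSD SECTOR Imager, IL3-independent transduced cells in medium with 1% FBS, compound concentration series at 37 °C and 5% CO2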
T2 construct: expressed in transfected cells; host or cells: Ba/F3 (DSMZ ACC-300), lentiviral transduction, puromycin selection, IL3 depletion
Procedure: To generate the EGFR exon 20 V769_D770insASV transduced Ba/F3 cell line, the parental Ba/F3 cells were infected with the recombinant EGFR V769_D770insASV lentivirus and then followed by 1 µg/ml of puromycin selection and IL3 depletion. The resulting cell line expresses constitutively phosphorylated EGFR protein and proliferates in the absence of IL3, which could be used for in vitro PD and anti-proliferation assays.
(§1) One day before the test, WT or mutant cells were seeded in 96 well plates at appropriate concentrations with corresponding growth media supplemented with 1% FBS, and incubated overnight. The next day, tested compounds at a series of concentrations were added into each individual well of the plates, and the plates were incubated for 4 h at 37° C. with 5% CO2.
(§2) The EGFR (Y1068) phosphorylation level (activity) of cells in each well were then measured with MSD kit named “MULTI-SPOT®96 4-Spot HB Prototype EGFR Triplex [sequence]: pEGFR(Tyr1068),pEGFR(Tyr1173), Total EGFR” according to the manufacturer’s instruction (MESO SCALE DISCOVERY, Cat# N45ZB-1). The assay is an electrochemiluminescent method for determining both phosphorylated and total EGFR of cells with an MSD SECTOR® Imager and the ratio of p-EGFR/total EGFR can be generated by the machine. The Her2 (Y1248) phosphorylation level (activity) of cells in each well were measured with MSD Kit named “Phospho-ErbB2 (Tyr1248) Assay Whole Cell Lysate Kit” according to the manufacturer’s instruction (MESO SCALE DISCOVERY, Cat# K151CLD-3). The assay is an electrochemiluminescent method (MESO SCALE DISCOVERY) for determining both phosphorylated and total Her2 of cells with an MSD SECTOR® Imager and then the ratio of p-Her2/total Her2 can be generated by the machine.

EGFR L858R&T790M = biological target: T3, EGFR L858R&T790M (Homo sapiens, UniProt P00533, L858R/T790M); assay: EGFR L858R and T790M cellular phosphorylation inhibition in NCI-H1975 (MSD); conditions: NCI-H1975 cells, 4 h compound, p-EGFR(Y1068)/total EGFR; read-out: EGFR L858R and T790M mutation IC50;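 also: phosphorylated and total EGFR detected by electrochemiluminescence, cells exposed to compound in medium containing 1% FBS at 37 °C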
T3 construct: host or cells: NCI-H1975
Procedure: as §1, §2

[3] = biological target: T4, human Her2 exon 20 insertion mutation YVMA (Homo sapiens, UniProt P04626, INS775YVMA); assay: Her2 Exon 20 YVMA insertion cellular phosphorylation inhibition (MSD p-Her2 Y1248/total Her2); conditions: Her2 YVMAins cells, 4 h compound;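 also: lentivirally transduced NIH-3T3 cells in 1% FBS medium, electrochemiluminescent MSD read-out, graded compound concentrations at 37 °C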
T4 construct: expressed in transfected cells; host or cells: NIH-3T3, lentiviral transduction, puromycin selection

WT EGFR = biological target: T5, WT EGFR (Homo sapiens, UniProt P00533); assay: WT EGFR cellular phosphorylation inhibition in A-431 (hEGF stimulated, MSD); conditions: A431 cells, 4 h compound, then 100 ng/ml hEGF 10 min;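 also: electrochemiluminescence read-out of EGFR Tyr1068 phosphorylation expressed as ratio to total EGFR, cells kept in medium with 1% FBS, compounds tested as a concentration series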
T5 construct: host or cells: A-431

Ba/F3 EGFR NPH ins cells = assay: Cell proliferation, Ba/F3 EGFR NPH ins (CellTiter-Glo, 72 h); conditions: Ba/F3 EGFR, 72 h, Ba/F3 EGFR NPH ins, 72 h proliferation; read-out: EGFR Exon20 NPH insertion GI50;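 also: IL3-independent cells carrying constitutively phosphorylated EGFR, compound dilution series, viable cells quantified by ATP luminescence, growth relative to DMSO wells after subtracting pre-dosing (day 0) baseline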
Ba/F3 EGFR ASV ins cells = assay: Cell proliferation, Ba/F3 EGFR ASV ins (CellTiter-Glo, 72 h); conditions: Ba/F3 EGFR, 72 h, Ba/F3 EGFR ASV ins, 72 h proliferation; read-out: EGFR Exon20 ASV insertion GI50;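 also: IL3-independent Ba/F3 cells transduced with EGFR V769_D770insASV, cellular ATP luminescence after compound exposure, growth relative to DMSO control with the day-0 baseline reading subtracted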
Procedure: WT or mutant cells were seeded in 384 well plates at appropriate concentrations with corresponding growth media supplemented with 10% FBS, for each experiment, identical plates were prepared in duplicates, and the plates were incubated overnight. On the next day, one of each duplicated plates was dosed with tested compounds at a series of concentrations, and another one of the duplicated plate was analysied for G0 value. The dosed plates were incubate for another 72 h at 37° C. with 5% CO2 and the number of viable cells in each well of the G0 plates or the dosed plates were measured by CellTiter-Glo® Luminescent Cell Viability Assay (Promega). This assay is a luminescent method for determining the number viable cells through measurement of cellular ATP concentration by detection of luciferase activity. Detection reagents (15 µl) was dispensed into per well, and the plates were incubate for 30 min at room temperature. Then, the luminescence in each well was measured using the Envision plate reader (PerkinElmer). The percentage of proliferation was calculated based on the formula: %Proliferation= 100 × (G3 value of sample well-Go value)/(G3 value of DMSO control-Go value).

[4] = system: NCI-H1975 EGFR L858R/T790M cells; assay: Cell proliferation, NCI-H1975 EGFR L858R/T790M (CellTiter-Glo, 72 h); conditions: Homo sapiens, NCI-H1975, 72 h, NCI-H1975, 72 h proliferation; read-out: EGFR L858R and T790M mutation GI50;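 also: viable cells quantified by luciferase-based ATP luminescence, proliferation expressed relative to DMSO-treated wells (100%) after subtracting a parallel plate read at the time of dosing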
[5] = system: Her2 exon 20 insertion YVMA transduced NIH-3T3 cell line; assay: Cell proliferation, Her2 YVMAins NIH-3T3 (CellTiter-Glo, 72 h); conditions: Mus musculus, NIH3T3, 72 h, Her2 YVMAins cells, 72 h proliferation; read-out: Her2 Exon 20 YVMA insertion GI50;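 also: viable cells quantified by ATP luminescence, growth over a day-zero baseline plate expressed as percent of DMSO control growth, compound dilution series in 10% FBS medium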
WT EGFR cell line A-431 = assay: Cell proliferation, WT EGFR A431 (CellTiter-Glo, 72 h); conditions: Homo sapiens, A-431, 72 h, A431, 72 h proliferation; read-out: EGFR WT A431 GI50;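 also: proliferation from a luminescent ATP viability signal, expressed as 100 × (treated minus time-zero plate) over (DMSO control minus time-zero plate), cells grown with 10% FBS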
OCI-LY-10 cells = assay: BTK (wt) cell proliferation, OCI-LY-10 (CellTiter-Glo, 72 h); conditions: Homo sapiens, OCI-Ly10, 72 h, OCI-LY-10 cells, 72 h, CellTiter-Glo; read-out: BTK WT OCI-LY-10 GI50;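 also: viable cells quantified via cellular ATP luminescence, proliferation given as percent of DMSO control after subtracting a duplicate plate read at time of dosing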
TMD-8 cells = assay: BTK (wt) cell proliferation, TMD-8 (CellTiter-Glo, 72 h); conditions: Homo sapiens, TMD8, 72 h, TMD-8 cells, 72 h, CellTiter-Glo; read-out: BTK WT TMD-8 GI50;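 also: viable cells quantified by ATP-based luminescence, proliferation expressed as percent of DMSO control after subtracting a time-zero baseline plate read at dosing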
Ri-1 cells = assay: BTK (wt) cell proliferation, Ri-1 (CellTiter-Glo, 72 h); conditions: Ri-1, 72 h, Ri-1 cells, 72 h, CellTiter-Glo; read-out: BTK WT Ri-1 GI50;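 also: viable cells quantified as cellular ATP luminescence, proliferation normalized to a time-zero plate and the DMSO control, compounds tested across a dilution series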
DB cells = assay: BTK (wt) cell proliferation, DB (CellTiter-Glo, 72 h); conditions: Homo sapiens, DB, DB cells, CellTiter-Glo, read-out: Non-BCR activated DB GI50;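 also: DB cells in 384-well plates given a dilution series of compound, viable cells read by ATP luminescence, growth expressed versus DMSO control after subtracting a time-zero plate reading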
Procedure: OCI-LY-10 at 3,750 cells/well, TMD-8 and Ri-1 at 2,000 cells/well, and DB at 1,250 cells/well, respectively, were sorted into 384-well plates in RPMI1640 medium with 10% FBS. After overnight incubation, all cells were incubated with compound at a series of concentrations. Meanwhile, a duplicated plate of each cell line was prepared for measuring G0 value. The dosed plates were further incubated for 72 hours and the number of viable cells was measured by CellTiter-Glo® Luminescent Cell Viability Assay (Promega), a luminescent method for determining the number of viable cells through measurement of cellular ATP concentration using Envision plate reader (PerkinElmer). The percentage of proliferation was calculated as: % Proliferation = 100 × (G3 value of sample well - G0 value)/(G3 value of DMSO control - G0 value).

T3 sequence (P00533 25-1210 T790M/L858R): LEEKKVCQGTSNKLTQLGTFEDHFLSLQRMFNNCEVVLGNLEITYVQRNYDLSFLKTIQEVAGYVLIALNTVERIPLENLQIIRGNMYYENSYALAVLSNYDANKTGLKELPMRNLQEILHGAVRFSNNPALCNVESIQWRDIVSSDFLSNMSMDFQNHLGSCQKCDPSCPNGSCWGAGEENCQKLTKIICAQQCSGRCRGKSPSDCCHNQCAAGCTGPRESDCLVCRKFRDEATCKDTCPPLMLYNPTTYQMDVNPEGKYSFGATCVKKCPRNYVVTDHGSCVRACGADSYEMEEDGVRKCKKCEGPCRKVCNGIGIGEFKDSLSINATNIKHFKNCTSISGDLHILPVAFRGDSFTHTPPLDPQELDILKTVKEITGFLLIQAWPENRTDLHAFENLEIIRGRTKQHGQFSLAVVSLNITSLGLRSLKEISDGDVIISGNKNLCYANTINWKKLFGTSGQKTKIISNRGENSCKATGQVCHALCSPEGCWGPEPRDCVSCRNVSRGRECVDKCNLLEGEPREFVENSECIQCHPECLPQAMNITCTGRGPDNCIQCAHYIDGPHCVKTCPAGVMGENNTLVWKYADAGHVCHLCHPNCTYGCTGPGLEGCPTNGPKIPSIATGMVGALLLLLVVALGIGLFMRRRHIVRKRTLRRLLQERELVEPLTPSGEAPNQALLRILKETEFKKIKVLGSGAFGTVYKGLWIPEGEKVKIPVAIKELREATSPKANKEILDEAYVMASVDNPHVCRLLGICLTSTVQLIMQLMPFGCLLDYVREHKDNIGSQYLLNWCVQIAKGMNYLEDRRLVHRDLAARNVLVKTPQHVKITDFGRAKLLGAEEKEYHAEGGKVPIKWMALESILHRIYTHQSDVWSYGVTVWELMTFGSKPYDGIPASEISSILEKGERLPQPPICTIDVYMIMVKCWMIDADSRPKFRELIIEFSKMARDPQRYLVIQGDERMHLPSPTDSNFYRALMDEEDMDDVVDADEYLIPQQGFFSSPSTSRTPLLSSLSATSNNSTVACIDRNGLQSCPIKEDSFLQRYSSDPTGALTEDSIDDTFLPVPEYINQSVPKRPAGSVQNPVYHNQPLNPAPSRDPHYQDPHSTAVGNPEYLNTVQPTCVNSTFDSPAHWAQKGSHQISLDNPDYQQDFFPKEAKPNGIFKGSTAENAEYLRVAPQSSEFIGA
T2 sequence (P00533 with tags, fused parts or gaps INS769ASV): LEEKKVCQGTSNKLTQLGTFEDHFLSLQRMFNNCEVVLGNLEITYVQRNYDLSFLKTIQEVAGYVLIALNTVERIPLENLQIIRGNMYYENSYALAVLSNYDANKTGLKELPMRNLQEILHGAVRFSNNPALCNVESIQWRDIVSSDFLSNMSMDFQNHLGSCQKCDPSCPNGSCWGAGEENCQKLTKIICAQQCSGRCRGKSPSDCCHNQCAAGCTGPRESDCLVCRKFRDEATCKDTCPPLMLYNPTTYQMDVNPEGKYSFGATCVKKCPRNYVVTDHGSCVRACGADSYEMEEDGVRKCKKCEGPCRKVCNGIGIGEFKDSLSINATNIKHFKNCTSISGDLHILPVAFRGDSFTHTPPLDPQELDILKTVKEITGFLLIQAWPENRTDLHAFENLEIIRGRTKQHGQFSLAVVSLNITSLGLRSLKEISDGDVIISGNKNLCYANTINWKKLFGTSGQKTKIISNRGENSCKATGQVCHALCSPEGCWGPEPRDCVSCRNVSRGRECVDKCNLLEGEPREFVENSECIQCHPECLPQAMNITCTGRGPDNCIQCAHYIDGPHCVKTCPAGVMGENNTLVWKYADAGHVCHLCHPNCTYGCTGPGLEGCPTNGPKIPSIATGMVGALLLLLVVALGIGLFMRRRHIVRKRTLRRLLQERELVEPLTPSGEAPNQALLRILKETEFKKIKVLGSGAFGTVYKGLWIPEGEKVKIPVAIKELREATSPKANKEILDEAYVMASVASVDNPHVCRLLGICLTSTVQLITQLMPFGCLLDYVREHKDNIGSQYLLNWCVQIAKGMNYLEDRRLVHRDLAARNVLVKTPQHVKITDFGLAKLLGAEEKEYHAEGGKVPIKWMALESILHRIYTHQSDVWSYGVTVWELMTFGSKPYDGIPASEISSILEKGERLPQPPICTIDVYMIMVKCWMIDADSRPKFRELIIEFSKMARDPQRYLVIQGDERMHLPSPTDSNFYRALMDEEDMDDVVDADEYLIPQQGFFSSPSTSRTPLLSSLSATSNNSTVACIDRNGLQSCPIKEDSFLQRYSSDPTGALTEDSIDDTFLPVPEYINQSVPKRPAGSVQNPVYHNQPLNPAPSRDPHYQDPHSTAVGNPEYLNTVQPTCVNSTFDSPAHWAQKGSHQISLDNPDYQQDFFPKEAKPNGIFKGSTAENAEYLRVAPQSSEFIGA
T4 sequence (P04626 with tags, fused parts or gaps INS775YVMA): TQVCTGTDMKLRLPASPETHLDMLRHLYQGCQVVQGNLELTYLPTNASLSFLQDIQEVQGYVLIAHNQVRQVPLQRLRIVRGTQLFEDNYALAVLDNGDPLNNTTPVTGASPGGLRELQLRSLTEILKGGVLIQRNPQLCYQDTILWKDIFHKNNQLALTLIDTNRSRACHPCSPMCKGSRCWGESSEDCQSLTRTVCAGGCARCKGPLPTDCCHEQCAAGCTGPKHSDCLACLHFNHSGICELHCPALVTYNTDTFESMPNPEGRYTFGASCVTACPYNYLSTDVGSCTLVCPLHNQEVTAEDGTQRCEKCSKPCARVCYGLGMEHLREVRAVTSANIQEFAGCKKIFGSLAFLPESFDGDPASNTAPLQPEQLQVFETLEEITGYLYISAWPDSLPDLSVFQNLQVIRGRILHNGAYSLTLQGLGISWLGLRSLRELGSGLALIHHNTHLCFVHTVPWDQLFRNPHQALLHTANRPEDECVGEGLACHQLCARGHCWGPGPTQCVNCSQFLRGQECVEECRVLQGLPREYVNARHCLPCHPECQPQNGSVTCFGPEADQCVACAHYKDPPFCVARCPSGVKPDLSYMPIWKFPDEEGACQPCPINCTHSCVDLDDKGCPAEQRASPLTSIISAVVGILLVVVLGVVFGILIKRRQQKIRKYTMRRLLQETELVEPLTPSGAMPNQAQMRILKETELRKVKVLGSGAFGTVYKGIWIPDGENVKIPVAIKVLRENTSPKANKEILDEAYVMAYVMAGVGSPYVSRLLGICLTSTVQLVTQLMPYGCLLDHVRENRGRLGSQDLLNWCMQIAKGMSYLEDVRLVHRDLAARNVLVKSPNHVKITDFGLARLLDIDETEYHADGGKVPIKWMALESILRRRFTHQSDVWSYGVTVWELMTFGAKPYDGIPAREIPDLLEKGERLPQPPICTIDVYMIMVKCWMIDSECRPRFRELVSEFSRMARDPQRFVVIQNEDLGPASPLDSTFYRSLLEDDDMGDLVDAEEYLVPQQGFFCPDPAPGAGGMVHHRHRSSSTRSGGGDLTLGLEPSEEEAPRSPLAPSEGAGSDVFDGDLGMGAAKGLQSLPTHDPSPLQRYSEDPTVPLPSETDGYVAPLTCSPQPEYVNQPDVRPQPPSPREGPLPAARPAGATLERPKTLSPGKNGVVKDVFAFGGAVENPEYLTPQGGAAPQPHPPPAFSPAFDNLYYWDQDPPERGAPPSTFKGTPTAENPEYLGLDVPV
T5 sequence (P00533 25-1210): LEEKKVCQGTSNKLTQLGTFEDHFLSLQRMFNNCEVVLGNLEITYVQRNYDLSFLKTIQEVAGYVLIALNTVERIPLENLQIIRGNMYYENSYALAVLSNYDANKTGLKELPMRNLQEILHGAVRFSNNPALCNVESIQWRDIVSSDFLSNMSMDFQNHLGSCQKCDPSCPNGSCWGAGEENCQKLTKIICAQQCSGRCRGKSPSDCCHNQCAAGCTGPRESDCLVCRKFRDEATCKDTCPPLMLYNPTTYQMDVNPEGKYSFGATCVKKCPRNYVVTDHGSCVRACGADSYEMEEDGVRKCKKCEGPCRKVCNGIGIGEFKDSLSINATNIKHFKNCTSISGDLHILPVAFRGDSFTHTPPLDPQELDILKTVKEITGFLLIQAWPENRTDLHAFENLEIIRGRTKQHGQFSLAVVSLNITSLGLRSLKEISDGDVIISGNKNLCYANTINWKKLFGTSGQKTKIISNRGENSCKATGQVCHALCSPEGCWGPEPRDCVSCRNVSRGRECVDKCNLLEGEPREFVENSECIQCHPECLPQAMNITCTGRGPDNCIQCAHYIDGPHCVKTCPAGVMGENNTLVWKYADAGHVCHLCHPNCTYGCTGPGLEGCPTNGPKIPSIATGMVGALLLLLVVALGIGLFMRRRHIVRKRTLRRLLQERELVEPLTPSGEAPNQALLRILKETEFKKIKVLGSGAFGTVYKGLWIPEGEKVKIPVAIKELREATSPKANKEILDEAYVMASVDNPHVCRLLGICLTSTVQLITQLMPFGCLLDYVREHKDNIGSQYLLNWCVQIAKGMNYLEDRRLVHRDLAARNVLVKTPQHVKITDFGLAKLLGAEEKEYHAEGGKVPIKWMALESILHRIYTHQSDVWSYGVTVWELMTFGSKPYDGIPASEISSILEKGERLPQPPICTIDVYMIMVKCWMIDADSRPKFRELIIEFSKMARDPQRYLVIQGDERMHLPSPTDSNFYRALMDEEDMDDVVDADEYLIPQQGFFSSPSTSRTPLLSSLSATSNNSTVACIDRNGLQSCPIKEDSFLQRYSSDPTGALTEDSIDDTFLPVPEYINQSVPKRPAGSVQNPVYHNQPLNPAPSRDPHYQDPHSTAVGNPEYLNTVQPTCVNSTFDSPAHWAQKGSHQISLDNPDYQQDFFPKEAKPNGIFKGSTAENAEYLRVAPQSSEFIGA

C=CC(=O)Nc1cc(Nc2ncnc(Nc3cc(Cl)c(F)cc3C(C)(C)O)n2)c(OC)cc1N1CC[C@H](N(C)C)C1 [Compound 60, (S)-N-(5-(4-(5-chloro-4-fluoro-2-(2-hydroxypropan-2-yl)phenylamino)-1,3,5-triazin-2-ylamino)-2-(3-(dimethylamino)pyrrolidin-1-yl)-4-methoxyphenyl)acrylamide]
IC50 [1]: 28.9 nM
IC50 [2]: 22.3 nM
IC50 (EGFR L858R&T790M): 1.3 nM
IC50 [3]: 11.6 nM
IC50 (WT EGFR): 50.7 nM
GI50 (Ba/F3 EGFR NPH ins cells): 48.6 nM
GI50 (Ba/F3 EGFR ASV ins cells): 76.3 nM
GI50 [4]: 2.5 nM
GI50 [5]: 102 nM
GI50 (WT EGFR cell line A-431): 25 nM
GI50 (OCI-LY-10 cells): 13.5 nM
GI50 (TMD-8 cells): 11.5 nM
GI50 (Ri-1 cells): 38.9 nM
GI50 (DB cells): > 3000 nM

C=CC(=O)Nc1cc(Nc2ncnc(Nc3cc(F)c(F)cc3C(C)(C)O)n2)c(OC)cc1N(C)CCN1CCCC1 [Compound 18]
IC50 [1]: 61.1 nM
IC50 [2]: 42.4 nM
IC50 (EGFR L858R&T790M): 1.1 nM
IC50 [3]: 22.1 nM
IC50 (WT EGFR): 58.9 nM
GI50 (Ba/F3 EGFR NPH ins cells): 93.6 nM
GI50 (Ba/F3 EGFR ASV ins cells): 91.3 nM
GI50 [4]: 10.9 nM
GI50 [5]: 136 nM
GI50 (WT EGFR cell line A-431): 42.8 nM
GI50 (OCI-LY-10 cells): 276 nM
GI50 (TMD-8 cells): 81.7 nM
GI50 (Ri-1 cells): 446 nM
GI50 (DB cells): > 3000 nM

C=CC(=O)Nc1cc(Nc2ncnc(Nc3cc(F)c(C4CC4)cc3C(C)(C)O)n2)c(OC)cc1N(C)CCN(C)C [Compound 34, N-(5-(4-(4-cyclopropyl-5-fluoro-2-(2-hydroxypropan-2-yl)phenylamino)-1,3,5-triazin-2-ylamino)-2-((2-(dimethylamino)ethyl)(methyl)amino)-4-methoxyphenyl)acrylamide]
IC50 [1]: 6.2 nM
IC50 [2]: 4.4 nM
IC50 (EGFR L858R&T790M): 0.5 nM
IC50 [3]: 4.2 nM
IC50 (WT EGFR): 6 nM
GI50 (Ba/F3 EGFR NPH ins cells): 16.4 nM
GI50 (Ba/F3 EGFR ASV ins cells): 17.6 nM
GI50 [4]: 1.6 nM
GI50 [5]: 21.1 nM
GI50 (WT EGFR cell line A-431): 7.5 nM
GI50 (OCI-LY-10 cells): 7.6 nM
GI50 (TMD-8 cells): 12.3 nM
GI50 (Ri-1 cells): 16.6 nM
GI50 (DB cells): > 3000 nM

C=CC(=O)Nc1cc(Nc2ncnc(Nc3cc(Cl)c(F)cc3C(C)(O)CC)n2)c(OC)cc1N1CCC[C@H]1CN(C)C (stereo partly drawn) [Compound 64, N-(5-(4-(5-chloro-4-fluoro-2-(2-hydroxybutan-2-yl)phenylamino)-1,3,5-triazin-2-ylamino)-2-((S)-2-((dimethylamino)methyl)pyrrolidin-1-yl)-4-methoxyphenyl)acrylamide]
IC50 [1]: 267 nM
IC50 [2]: 240 nM
IC50 (EGFR L858R&T790M): 7.1 nM
IC50 [3]: 143 nM
IC50 (WT EGFR): 555 nM
GI50 (Ba/F3 EGFR NPH ins cells): 359 nM
GI50 (Ba/F3 EGFR ASV ins cells): 395 nM
GI50 [4]: 24.2 nM
GI50 [5]: 640 nM
GI50 (WT EGFR cell line A-431): 220 nM

COc1cc(N(C)CCN(C)C)c(NC(=O)/C=C/CN(C)C)cc1Nc1ncnc(Nc2cc(F)c(F)cc2C(C)(C)O)n1 [Compound 5, (E)-N-(5-(4-(4,5-difluoro-2-(2-hydroxypropan-2-yl)phenylamino)-1,3,5-triazin-2-ylamino)-2-((2-(dimethylamino)ethyl)(methyl)amino)-4-methoxypheny 1)-4-(dimethylamino)but-2-enamide]
IC50 [1]: 271 nM
IC50 [2]: 170 nM
IC50 (EGFR L858R&T790M): 6.3 nM
IC50 [3]: 36.2 nM
IC50 (WT EGFR): 90.3 nM
GI50 (Ba/F3 EGFR NPH ins cells): 461 nM
GI50 (Ba/F3 EGFR ASV ins cells): 234 nM
GI50 [4]: 114 nM
GI50 [5]: 68.9 nM
GI50 (WT EGFR cell line A-431): 117 nM
